According to patent US20230041197A1, “TREATMENT OF A DISEASE OF THE GASTROINTESTINAL TRACT WITH AN IMMUNOMODULATOR” (Progenity, Inc., priority 2018, published 2023):
Where a name gives a salt, the structure may show the parent alone.

Key:
[1] = tested on: IL-6, GM-CSF, IL-15, IL-2, IL-12, IL-13, TNF-α, INF-γ
[2] = Tacrolimus blood pharmacokinetics, oral vs intra-cecal ingestible device (Example 10); format: in vivo, Yorkshire-Cross farm swine
Experimental: The primary objective of this study was to compare the tissue, plasma, rectal sample, and GI content pharmacokinetics of tacrolimus through oral versus intra-cecal ingestible device delivery in normal Yorkshire-Cross farm swine.
No further randomization procedure was employed.
Animals in Group 1 received an ingestible device containing 0.8 mL of vehicle solution (80% alcohol, 20% HCO-60). Animals in Group 2 received orally […] liquid formulation of tacrolimus at 4 mg/0.8 mL per animal (Prograf: 5 mg/mL). Animals in Group 3 received intra-cecally an ingestible device containing tacrolimus at 1 mg in 0.8 mL per ingestible device. Animals in Group 4 received intra-cecally an ingestible device containing tacrolimus at 2 mg in 0.8 mL per ingestible device. Animals in Group 5 received intra-cecally an ingestible device containing tacrolimus at 4 mg in 0.8 mL per ingestible device. To control for potential confounding effects of the surgery, all groups fast on Day −11 at least 24 hr before being subjected to anesthesia followed by surgical placements of a cecal port by a veterinary surgeon at Day −10. All animals were fasted for at least 12 hr prior to dosing on Day 1. Animals were dosed via either intra-cecal dosing (IC) or oral dosing (PO) at Day 1 (between 6-8 p.m.). All animals resumed feeding at approximately 4 hours after dose (11-12 p.m. after dosing).
Approximately 200-400 mg of rectal content were collected, if available, with a fecal swab (Copan Diagnostics Nylon Flocked Dry Swabs, 502CS01). The fecal swab was pre-weighed and weighed after collection in the collection tube (Sterile Tube and Cap No Media, PFPM913S), and the sample weight was recorded. The fecal swab was broken via the breakpoint, and was stored in the collection tube, and immediately frozen at −70° C. […] Immediately following euthanasia, tissue was collected.
Group 2 animals were administered a single oral dose of tacrolimus at 4 mg/0.8 mL (0.08-mg/kg) (in the vehicle solution) on Day 1. Plasma, rectal content sample, tissue collection, GI content collection and related procedures/storage/shipments was the same as those employed in Group 1.
(§1) Group 3 animals were administered a single intra-cecal ingestible device containing tacrolimus at 1-mg/0.8 mL (0.02 mg/kg) (in the vehicle solution) on Day 1 by a veterinary surgeon. Plasma, rectal content sample, tissue collection, GI content collection and related procedures/storage/shipments was the same as those employed in Group 1. All samples were analyzed for tacrolimus.
Group 4 animals were administered a single intra-cecal ingestible device of tacrolimus at 2 mg/0.8 mL (0.04 mg/kg) (in sterile vehicle solution) on Day 1 by a veterinary surgeon.
as §1, with “Group 5” for “Group 3”, “animals are” for “animals were”, “at 4 mg/0.8” for “at 1-mg/0.8”, “mL (0.08” for “mL (0.02”, “procedures/storage/shipments were” for “procedures/storage/shipments was”

[3] = Tacrolimus in GI tissue, luminal content and rectal content, oral vs intra-cecal device (Example 10); format: in vivo, Yorkshire-Cross farm swine
Experimental: Animals in Group 1 (Vehicle Control) were administered a single intra-cecal ingestible device containing 0.8 mL Vehicle solution (80% alcohol, 20% castor oil (HCO-60) on Day 1. On Day −10 the animals were anesthetized, and a veterinary surgeon surgically placed an intra-cecal port in each animal. On Day 1, each animal was placed into a sling then a single intra-cecal ingestible device containing 0.8 mL vehicle solution (80% alcohol, 20% castor oil (HCO-60)) is introduced by the veterinary surgeon into the cecum via the cecal port in each animal. Following ingestible device placement, the animals were removed from the slings and placed back into their pens with water. […]
Approximately 200-400 mg of rectal content were collected, if available, with a fecal swab (Copan Diagnostics Nylon Flocked Dry Swabs, 502CS01). The fecal swab was pre-weighed and weighed after collection in the collection tube (Sterile Tube and Cap No Media, PFPM913S), and the sample weight was recorded. […]
For tissue necropsy, small intestine fluid and cecal fluid were collected separately from all the animals into two separate square plastic bottles, and stored at −20° C. The length and diameter of the cecum and the colon was measured from one animal in each group and recorded for reference. […] All samples were weighed, and the tissue sample weights were recorded. […]

[4] = set-up: species or system Yorkshire-Cross farm swine; details: in vivo
From the text: Tables 32 and 33 provide the tissue and plasma ratios of the animals in Groups 2-5.

[5] = female, Yorkshire-Cross, pig, in vivo, 0.04 mg/kg

SMILES | GM-CSF levels in plasma or colon tissue ([1]; IC vs PO treatment groups) | IL-6 expression in plasma ([1]; PO or IC, 1 h and 3 h post-treatment) | inhibition of IL-6 expression in colon tissue ([1]; all IC treated groups and high dose PO group (45 mg/kg), FIG. 112B) | IL-6 inhibition in colon tissue ([1]; low dose PO group (15 mg/kg), by 12 h post-dose) | Cmax ([2]; PO, 0.09 mg/kg) [ng/mL] | concentration at 12 h ([2]; female, Yorkshire-Cross, pig, in vivo, 0.02 mg/kg) [ng/mL] | Tmax [2, 5] [h] | concentration at 12 h [2, 5] [ng/mL] | concentration at 12 h ([2]; female, Yorkshire-Cross, pig, in vivo, 0.09 mg/kg) [ng/mL] | tissue (spiral and transverse colon) and luminal content (spiral, transverse, and distal colon) concentrations ([3]; IC capsule high and moderate dose vs PO) | mean concentration in cecum tissue and proximate colon tissue ([3]; intra-cecal vs oral, FIG. 76) | mean concentration in spiral colon lumen, transverse colon lumen and distal colon lumen [4] | mean concentration in spiral colon tissue and transverse colon tissue [4]
C[C@@H]1CCN(C(=O)CC#N)C[C@@H]1N(C)c1ncnc2[nH]ccc12 [tofacitinib citrate] | nor was there a significant difference | inhibition | sustained through 24 h post-dose | Recovery from IL-6 inhibition | – | – | – | – | – | – | – | – | –
C=CC[C@@H]1/C=C(\C)C[C@H](C)C[C@H](OC)[C@H]2O[C@@](O)(C(=O)C(=O)N3CCCC[C@H]3C(=O)O[C@H](/C(C)=C/[C@@H]3CC[C@@H](O)[C@H](OC)C3)[C@H](C)[C@@H](O)CC1=O)[C@H](C)C[C@@H]2OC [tacrolimus] | – | – | – | – | 3.531 ± 3.84 | 0.746 ± 0.038 | 1 | 1.96 ± 0.491 | 4.35 ± 0.516 | Significantly higher | higher | statistically higher | statistically higher
